Test results: ChEMBL document CHEMBL1671795, “Evaluation of endogenous fatty acid amides and their synthetic analogues as potential anti-inflammatory leads” (Bioorg Med Chem, 2011)
pIC50: −log10 of the molar value.

What was measured:
RAW264.7 [1] = test: Antiinflammatory activity against LPS-stimulated mouse RAW264.7 cells assessed as inhibition of IL-6 production at 1 to 15 uM after 18 hrs by ELISA; format: functional, cell-based
RAW264.7 [2] = test: Antiinflammatory activity against LPS-stimulated mouse RAW264.7 cells assessed as inhibition of IL1-beta production at 1 to 15 uM after 18 hrs by ELISA; format: functional, cell-based
RAW264.7 [3] = test: Antiinflammatory activity against LPS-stimulated mouse RAW264.7 cells assessed as inhibition of TNFalpha production at 1 to 15 uM after 18 hrs by ELISA; format: functional, cell-based
RAW264.7 [4] = test: Antiinflammatory activity against LPS-stimulated mouse RAW264.7 cells assessed as inhibition of NO production at 3.125 to 25 uM after 24 hrs by Griess method; format: functional, cell-based
HaCaT [5] = test: Antiinflammatory activity against IFN-gamma-stimulated human HaCaT cells assessed as inhibition of chemokine MDC production at 50 to 100 uM after 18 hrs by ELISA; format: functional, cell-based
HaCaT [6] = test: Cytotoxicity against human HaCaT cells at 50 to 100 uM after 24 hrs by MTT assay; format: cell-based
RAW264.7 [7] = test: Cytotoxicity against mouse RAW264.7 cells at 50 uM after 24 hrs by MTT assay; format: cell-based; settings: raw264.7, 24 h
RAW264.7 [8] = test: Cytotoxicity against mouse RAW264.7 cells at 100 uM after 24 hrs by MTT assay; format: cell-based; settings: raw264.7, 24 h
[9] = Cytotoxicity against mouse RAW264.7 cells after 24 hrs by MTT assay; format: cell-based; settings: read-out: TC50

Row | SMILES | Activity (RAW264.7 [1]) | Activity (RAW264.7 [2]) | Activity (RAW264.7 [3]) | Activity (RAW264.7 [4]) | Activity (HaCaT [5]) | Activity (HaCaT [6]) | Activity (RAW264.7 [7]) | Activity (RAW264.7 [4]; record 2) | Activity (RAW264.7 [8]) | CC50 at 24 h [9] | pIC50 (RAW264.7 [4]; Mus musculus, RAW264.7, 24 h)
1 | CC/C=C\C/C=C\C/C=C\CCCCCCCC(=O)NCCc1ccc(O)c(O)c1 [LINOLEOYL DOPAMINE] | Dose-dependent effect | Dose-dependent effect | Dose-dependent effect | Dose-dependent effect | Non-toxic |  |  |  |  |  | 
2 | CCCCCCCC/C=C\CCCCCCCCCCCC(=O)NCc1ccc(O)c(OC)c1 | Dose-dependent effect | Dose-dependent effect | Dose-dependent effect |  | Non-toxic | Toxic |  |  |  |  | 
3 | CCCCCCCCCCCCCCCC(=O)NCc1ccc(O)c(OC)c1 | Dose-dependent effect | Dose-dependent effect | Dose-dependent effect |  | Non-toxic | Toxic |  |  |  |  | 
4 | CCCCC/C=C\C/C=C\CCCCCCCC(=O)NCCc1ccc(O)c(O)c1 | Dose-dependent effect | Dose-dependent effect | Dose-dependent effect | Dose-dependent effect | Non-toxic | Toxic | Toxic | 2 µM | Toxic | 13 µM | 
5 | CCCCCCCCC(=O)/C=C/CCCCCCC(=O)NCCc1ccc(O)c(O)c1 | Dose-dependent effect | Dose-dependent effect | Dose-dependent effect | Dose-dependent effect | Non-toxic | Toxic | Toxic |  | Toxic | 13 µM | 5.70
6 | CCCCCCCCCCCCCCCC(=O)NCCc1ccc(O)c(O)c1 [PALMITOYL DOPAMINE] | Dose-dependent effect | Dose-dependent effect | Dose-dependent effect | Dose-dependent effect | Non-toxic | Toxic | Toxic | 2 µM | Toxic | 13 µM | 
7 | CCCCC/C=C\C/C=C\CCCCCCCC(=O)NCc1ccc(O)c(OC)c1 | Dose-dependent effect | Dose-dependent effect | Dose-dependent effect |  | Non-toxic | Toxic |  |  |  |  | 
8 | CCCCCCCC/C=C\CCCCCCCCCCCC(=O)NCCc1ccc(O)c(O)c1 | Dose-dependent effect | Dose-dependent effect | Dose-dependent effect | Dose-dependent effect | Non-toxic | Toxic | Toxic | 2 µM | Toxic | 13 µM | 
9 | CCCCCCCC/C=C\CCCCCCCC(=O)NCc1ccc(O)c(OC)c1 [OLVANIL] | Dose-dependent effect | Dose-dependent effect | Dose-dependent effect |  | Non-toxic | Toxic |  |  |  |  | 
10 | CCCCCCCC/C=C\CCCCCCCC(=O)NCCc1ccc(O)c(O)c1 [OLEOYL DOPAMINE] | Dose-dependent effect | Dose-dependent effect | Dose-dependent effect | Dose-dependent effect | Non-toxic | Toxic | Toxic | 2 µM | Toxic | 13 µM | 
11 | CC/C=C\C/C=C\C/C=C\CCCCCCCC(=O)NCc1ccc(O)c(OC)c1 | Dose-dependent effect | Dose-dependent effect | Dose-dependent effect |  | Non-toxic | Toxic |  |  |  |  | 
